Laboratory results from US12018029B2, “Hexahydropyrrolo[3,4-c]pyrrole derivatives useful as LOX inhibitors” (THE INSTITUTE OF CANCER RESEARCH: ROYAL CANCER HOSPITAL, priority 2018, dated 2024).

Columns and labels:
[1] = test system: MDA-MB-231 human breast adenocarcinoma; experiment: MDA-MB-231 xenografts, primary tumour; format: in vivo; details: ratio of average tumour volume treated/vehicle; 200 mg/kg po qd; p<0.05
Protocol: (§1) All procedures involving animals were approved by the Animal Welfare and Ethical Review Body of the Institute of Cancer Research and Cancer Research UK Manchester Institute in accordance with National Home Office regulations under the Animals (Scientific Procedures) Act 1986 and according to the guidelines of the Committee of the National Cancer Research Institute Tumour size was determined by caliper measurements of tumour length, width and depth and volume was calculated as volume=0.5236×length×width×depth (mm).
MDA-MB-231 xenografts. […] Tumours and weights are measured twice weekly using calipers and the animals can be imaged using non-invasive method by bioluminescence using IVIS 200 imaging machine, weekly using 150 mg/kg luciferin administrate intraperitoneal or subcutaneous. […] Frozen samples kept at −80 degree centigrade until being analyzed and the fixed samples stained according to desired marker.
(§2) For therapeutic efficacy assessment, the ratio of average tumour volume between compound treated and vehicle control treated (T/C) is calculated. […] The efficacy of LOX inhibitors described in this invention, as measured by T/C in a pancreatic cancer model, a colorectal cancer model and a breast cancer model is shown in Table 3 and is significant (p<0.05) for all the data presented.

[2] = test system: PDAC KP^flC (LOX H1 clone) cells; experiment: PDAC allograft, primary tumour, p53 wt, LOX o/e; format: in vivo, mouse; details: ratio of average tumour volume treated/vehicle; 200 mg/kg po qd; p<0.05
[3] = test system: MMTV-PyMT lung metastases; experiment: MMTV-PyMT transgenic mouse breast cancer model, lung metastases; format: in vivo, mice; details: @67 mpk po qd, p<0.05
Protocol: LOX Inhibitor Treatment of a Transgenic Mouse Breast Cancer Model
MMTV-PyMT (Guy et al, 1992) (FVB) female mice were randomized by non-statistical methods to LOX inhibitor treatment groups from day 70 post-birth, when animals had no detectable tumour. Mice were treated daily by oral gavage with LOX inhibitor in vehicle, or daily vehicle (5% DMSO/2.5% Tween20 in water) by oral gavage. Tumour size was determined unblinded by caliper measurements of tumour length, width and depth and volume was calculated as 0.5236×length×width×depth (mm). In all experiments, mice were humanely killed and mammary tumours and lungs were collected when the primary tumours reached ethical limits or signs of ill health.
For lung metastases quantification, all mouse tissue samples were fixed in 10% formalin (Sigma) and embedded in paraffin. […] Lung metastases number was counted and area was measured using ImageScope. […] The ratio of average metastases surface between compound treated and vehicle control treated (T/C) is calculated. The ratio of average metastases numbers between compound treated and vehicle control treated (T/C) is also calculated. […] The antimetastatic efficacy of LOX inhibitors described in this invention, as measured by T/C in a model of breast cancer metastasizing to lungs is shown in Table 3 and is significant (p<0.05) for all the data presented.

[4] = test system: SW620 human colorectal carcinoma cells (mutant RAS); experiment: SW620 xenografts, primary tumour; format: in vivo; details: ratio of average tumour volume treated/vehicle; 200 mg/kg po qd; p<0.05
Protocol: as §1
SW620 xenografts: NCr mice were inoculated subcutaneously in the right flank with 5×10^6 SW620 cells at 100 ul suspension per animal. Groups of 7-8 mice were assigned to treatment following stratified allocation of tumour volumes with a median size of circa 100 mm^3. […] Tumours and weights are measured twice weekly using calipers. […] Frozen samples are kept at −80 degree centigrade until being analysed and the fixed samples stained according to the desired marker.
as §2

CCOc1ccc(N2C[C@H]3CN(C(=O)NCCO)C[C@H]3C2)cc1 [Example 1, cis-5-(4-Ethoxyphenyl)-N-(2-hydroxyethyl)hexahydropyrrolo[3,4-c]pyrrole-2(1H)-carboxamide]
T/C, MDA-MB-231 human breast adenocarcinoma - primary tumour [1]: 0.29 | T/C, PDAC (mouse pancreatic carcinoma) primary tumour b) p53wt, LOX o/e [2]: b) 0.35 | T/C, MMT-PyMT breast transgenic model - metastases a) Count ([3]; ratio of average lung metastases numbers treated/vehicle): a) 0.14 | T/C, MMT-PyMT breast transgenic model - metastases b) Area ([3]; ratio of average lung metastases surface treated/vehicle): b) 0.02 | T/C, SW620 human colorectal carcinoma cells (mutant RAS) - primary tumour [4]: 0.55
